Laboratory results as given in PubChem BioAssay (NCI).
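Method: 48-hour compound exposure of cells in 96-well plates, five concentrations, linear interpolation of endpoints. The concentration for 50% growth inhibition is given as GI50. The concentration for full growth arrest is given as TGI.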

How the values were obtained:
Test in all cases: inhibition of tumour cell growth, NCI panel, 48 h
OVCAR-4 ovarian = system: OVCAR-4 ovarian
MOLT-4 leukemia = system: MOLT-4 leukemia
PC-3 prostate = system: PC-3 prostate
HCT-116 colon = system: HCT-116 colon
786-0 renal = system: 786-0 renal
T-47D breast = system: T-47D breast
MDA-MB-435 = system: MDA-MB-435
HS 578T breast = system: HS 578T breast
CAKI-1 renal = system: CAKI-1 renal
UACC-62 melanoma = system: UACC-62 melanoma

Structure (SMILES)	GI50 (OVCAR-4 ovarian) [µM]	TGI (OVCAR-4 ovarian) [µM]	GI50 (MOLT-4 leukemia) [µM]	TGI (MOLT-4 leukemia) [µM]	GI50 (PC-3 prostate) [µM]	TGI (PC-3 prostate) [µM]	GI50 (HCT-116 colon) [µM]	TGI (HCT-116 colon) [µM]	GI50 (786-0 renal) [µM]	TGI (786-0 renal) [µM]	GI50 (T-47D breast) [µM]	TGI (T-47D breast) [µM]	GI50 (MDA-MB-435) [µM]	TGI (MDA-MB-435) [µM]	GI50 (HS 578T breast) [µM]	TGI (HS 578T breast) [µM]	GI50 (CAKI-1 renal) [µM]	TGI (CAKI-1 renal) [µM]	GI50 (UACC-62 melanoma) [µM]	TGI (UACC-62 melanoma) [µM]
C[CH2][Hg][S]c1ccccc1C(=O)O	2.01	7	2.43	6.7	3.88	17.7	1.31	2.58	1.59	2.95	0.522	2.79	1.4	2.95	2.08	> 100	0.316	1.47	1.36	2.98
CCc1c(C)nc2sc3c(N)ncnc3c2c1C	> 25	> 25	> 25	> 25	> 25	> 25	> 25	> 25	> 25	> 25	> 25	> 25	> 25	> 25	> 25	> 25	> 19.6	> 25	> 25	> 25
FC(F)(F)c1cccc(-c2nn3ncccc3c2-c2ccnc(Nc3ccc4c(c3)OCCO4)n2)c1	10.3	> 25	11.8	> 25	10.5	> 25	9.75	> 25	8.35	> 25	7.37	> 25	13.1	> 25	16.4	> 25	7.66	> 25	15	> 25
N#CCN1C(=O)c2cc([N+](=O)[O-])cc3cc([N+](=O)[O-])cc(c23)C1=O	–	28.4	–	> 22.8	–	–	–	> 42.7	–	42.8	–	–	–	–	–	–	–	96.6	–	29.2
CC1C=CC(OC(=O)C(C)(O)CCC(O)(C(=O)OC2CC(O)C(C(C)C)CC2(C)O)C(C)C)(C(C)C)CC1 (configuration not stated)	0.746	1.71	0.193	0.861	0.676	1.4	0.16	0.449	0.681	1.37	0.292	1.81	0.521	1.13	0.792	4.84	0.594	1.2	0.511	2.79
Cn1ccnc1Oc1ccc(Cl)cc1	–	19.8	–	7.01	–	34.2	–	24.3	–	24.7	–	14.3	–	25.1	–	66.1	–	–	–	23.5
COc1cc(C(=O)c2cc(C)c3[nH]c4ccc(O)cc4c3c2C)cc(OC)c1OC	1.05	> 100	0.0424	> 100	< 0.02	> 100	< 0.01	–	< 0.0184	> 22.2	–	–	< 0.01	0.018	0.0141	> 100	< 0.01	> 47.6	< 0.01	> 100
CCOC(=O)C1Nc2ccccc2[C@H]2OCC[C@@H]12 (some centres not stated)	–	> 100	–	> 100	–	–	–	> 100	–	> 100	–	–	–	–	–	–	–	> 100	–	> 100
CN=C1OC2(c3ccccc3)C3=C(OC(=NC)N2C)C(=O)OC3(c2ccccc2)N1C (configuration not stated)	–	> 100	–	> 100	–	> 100	–	> 100	–	> 100	–	> 100	–	–	–	> 100	–	> 100	–	> 100
O=C1OC(=O)c2c1c(-c1ccccc1)nc1ccccc21	–	–	–	> 100	–	–	–	> 100	–	> 100	–	–	–	–	–	–	–	> 100	–	> 100
O=C(O)CCNS(=O)(=O)c1ccc([N+](=O)[O-])cc1	–	> 100	–	> 100	–	–	–	–	–	> 100	–	–	–	–	–	–	–	> 100	–	> 100
COc1cc(-c2nn(-c3cccc(NC(=O)CCN4CCN(Cc5ccccc5)CC4)c3)cc2-c2ccncc2)ccc1Cl	1.8	41	1.15	5.8	0.709	11.6	0.406	1.75	1.33	3.02	2.76	27.6	0.237	0.737	1.02	4.34	–	–	1.13	2.7
NC1=NC(=O)C(CC(=O)Nc2ccc(Cl)cc2Cl)S1 (configuration not stated)	–	> 100	–	> 100	–	–	–	–	–	> 100	–	–	–	–	–	–	–	> 100	–	> 100
CC1=C(CC2C(=O)N(c3ccccc3)S(=O)(=O)NC2C)C(=O)N(c2ccccc2)S(=O)(=O)N1C (configuration not stated)	–	> 100	–	> 100	–	–	–	> 100	–	> 100	–	–	–	–	–	–	–	> 100	–	> 100
CC(=O)/C(=C\c1ccccc1O)C(=O)Nc1ccccc1C	–	> 100	–	70.1	–	–	–	> 100	–	29.4	–	–	–	–	–	–	–	63.8	–	68.7
O=C(c1ccccc1)c1c(CC(O)c2ccncc2)n(C(=O)c2ccccc2)c2ccccc12 (configuration not stated)	–	39.7	–	42.1	–	–	–	29.2	–	39.1	–	–	–	–	–	–	–	59.7	–	31.5
CCC(=O)Nc1ccc(N2C(=O)/C(=C/c3ccc(OC)cc3)N=C2c2ccccc2)cc1	16.2	> 50	1.06	> 50	13.5	> 50	2.41	8.9	16.5	> 50	–	–	20.5	> 50	14.1	> 50	6.4	21.7	3.67	17.7
COc1cc(C2(C)SCCCS2)cc(OC)c1OC	–	> 100	–	> 100	–	–	–	> 100	–	> 100	–	–	–	–	–	–	–	> 100	–	> 100
CC1=C(C(=O)Nc2ccc(Cl)c(Cl)c2)C(c2ccc([N+](=O)[O-])cc2)C(C(=O)Nc2ccc(Cl)c(Cl)c2)=C(C)N1	–	11.8	–	> 100	–	–	–	3.51	–	11.1	–	–	–	–	–	–	–	16	–	4.46
N#CCCC1(CCC#N)CCCCCCCCC(CCC#N)(CCC#N)C(O)C1O (configuration not stated)	–	> 100	–	–	–	> 100	–	> 100	–	> 100	–	> 100	–	> 100	–	91.3	–	> 100	–	> 100
N#CNc1nc(N)c(-c2ccc(Cl)cc2)c(C(=O)Nc2nccs2)n1	–	> 100	–	> 100	–	–	–	> 100	–	> 100	–	–	–	–	–	–	–	> 100	–	> 100
CNNC(=NS(=O)(=O)c1cc(C#N)c(NNC)cc1S)NNC	–	> 10	–	> 10	–	> 10	–	> 10	–	> 10	–	> 10	–	–	–	> 10	–	> 10	–	–

Structure (SMILES)	GI50 (OVCAR-4 ovarian) [µM]	TGI (OVCAR-4 ovarian) [µM]	GI50 (MOLT-4 leukemia) [µM]	TGI (MOLT-4 leukemia) [µM]	GI50 (PC-3 prostate) [µM]	TGI (PC-3 prostate) [µM]	GI50 (HCT-116 colon) [µM]	TGI (HCT-116 colon) [µM]	GI50 (786-0 renal) [µM]	TGI (786-0 renal) [µM]	GI50 (T-47D breast) [µM]	TGI (T-47D breast) [µM]	GI50 (MDA-MB-435) [µM]	TGI (MDA-MB-435) [µM]	GI50 (HS 578T breast) [µM]	TGI (HS 578T breast) [µM]	GI50 (CAKI-1 renal) [µM]	TGI (CAKI-1 renal) [µM]	GI50 (UACC-62 melanoma) [µM]	TGI (UACC-62 melanoma) [µM]
COc1ccc(-c2cc(=O)c3c(O)cccc3o2)c(OC)c1OC	–	> 100	–	> 100	–	–	–	> 100	–	> 100	–	–	–	–	–	–	–	> 100	–	> 100
C=C1[C@@H](O)O[C@H]2[C@H]1C[C@H](OC(C)=O)[C@]13C(=O)O[C@H]4C[C@](C)(O)[C@H]([C@H]41)C31C=C(C)[C@]2(O)O1	> 100	> 100	80.6	> 100	53.3	> 100	19.8	38.2	22.4	49.1	> 100	> 100	13.3	> 100	–	–	0.516	34.6	30.3	> 100
COc1ccc(OC(=O)CC2Cc3cc(OC)c(OC)c(OC)c3-c3ccc(SC)c(=O)cc32)cc1 (configuration not stated)	–	> 100	–	> 100	–	–	–	11.2	–	> 36	–	–	–	–	–	–	–	–	–	21
O=C1c2ccccc2N2OC3(N4CCCC4)CCCCC3C12c1ccccc1 (configuration not stated)	–	28.1	–	> 100	–	–	–	27.6	–	31.6	–	–	–	–	–	–	–	–	–	40.1
Cc1ccc(C2C3Cc4ccccc4C3=NN2c2ccc(S(=O)(=O)/N=c3\scc(-c4ccccc4)n3-c3ccccc3)cc2)cc1 (configuration not stated)	–	–	12.8	31.1	21.3	53.2	18.6	> 100	32	> 100	35.5	> 100	17.6	37.7	17.2	44.8	18.6	44.7	14	27.7
O=C1C=C(O)C(=Cc2c(O)cc(O)cc2O)C(O)=C1	–	> 100	–	> 100	–	–	–	> 100	–	> 100	–	–	–	–	–	–	–	> 100	–	> 100
Cc1ccc(NC(=O)C(=O)C(C(=O)/C=C/c2ccccc2)C2OC(=O)c3ccccc32)c(C)c1 (configuration not stated)	–	> 100	–	> 100	–	–	–	> 100	–	> 100	–	–	–	–	–	–	–	> 100	–	> 100
ClC1=C(Cl)C(Cl)(Cl)c2c3c(c4c(c21)C(Cl)(Cl)C(Cl)=C4Cl)C(Cl)(Cl)C(Cl)=C3Cl	–	–	–	> 100	–	–	–	> 100	–	> 100	–	–	–	–	–	–	–	–	–	–
CC(C)(C)c1cc2nc(c1)C(C(F)(F)F)(C(F)(F)F)OB(Br)OC2(C(F)(F)F)C(F)(F)F	–	–	–	0.28	–	–	–	–	–	1.81	–	–	–	–	–	–	–	1.18	–	0.983
Fc1cccc(F)c1C(Nc1nncs1)Nc1nncs1	–	> 100	–	–	–	> 100	–	> 100	–	> 100	–	> 100	–	> 100	–	> 100	–	> 100	–	> 100
COc1ccc(NC(=O)C(=O)/C=C(\O)c2ccccc2)cc1	–	> 10	–	4.18	–	> 10	–	–	–	> 10	–	> 10	–	> 10	–	–	–	> 10	–	> 10
O=c1c2cc(F)ccc2sc2c(NCCCNCCO)nc3ccccc3c12	1.92	4.05	–	–	1.7	3.29	1.73	3.32	1.53	3.07	–	–	1.79	3.4	1.7	3.74	1.61	2.97	1.73	3.23
Cc1cc(=O)c2c(O)cc3c(c2o1)CC=C(COC1OC(COC2OC(CO)C(O)C(O)C2O)C(O)C(O)C1O)CO3 (configuration not stated)	–	> 100	–	> 100	–	–	–	> 100	–	> 100	–	–	–	–	–	–	–	> 100	–	> 100
N#CC1(C#N)C(c2ccccc2)C=CC12OCCCO2 (configuration not stated)	–	> 100	–	98.1	–	–	–	> 100	–	> 100	–	–	–	–	–	–	–	74.1	–	> 100
Cc1ccncc1C(N)=O	–	–	> 100	> 100	> 100	> 100	> 100	> 100	> 100	> 100	> 100	> 100	> 100	> 100	> 100	> 100	> 100	> 100	> 100	> 100
c1ccc2c(c1)CCc1c-2n[nH]c1-c1[nH]nc2c1CCc1ccccc1-2	–	–	–	> 100	–	–	–	> 100	–	> 100	–	–	–	–	–	–	–	> 100	–	> 100
CCOC(=O)/C(I)=C/c1cc(OC)c(OC)c(OC)c1	–	52.4	–	40.3	–	–	–	12.5	–	33	–	–	–	–	–	–	–	16.3	–	16.1
CC(CO)(Nc1ccc([N+](=O)[O-])cc1[N+](=O)[O-])C(=O)O (configuration not stated)	–	–	–	–	–	> 100	–	> 100	–	> 100	–	–	–	44.9	–	46.3	–	89.8	–	> 100
C1CSCCSCCCSCCSCCCSCCSCCCSCCSC1	–	> 100	–	> 100	–	> 100	–	> 100	–	> 100	–	> 100	–	> 100	–	> 100	–	> 100	–	–
O=C(Cc1nc2ccccc2o1)C(=O)Nc1cccc(C(F)(F)F)c1	–	> 100	–	> 100	–	–	–	> 100	–	> 100	–	–	–	–	–	–	–	> 100	–	> 100
COc1cccc(C2c3cc4c(cc3OC3COC(=O)C32)OCO4)c1OC (configuration not stated)	–	> 100	–	> 100	–	> 100	–	> 100	–	> 100	–	–	–	–	–	> 100	–	> 100	–	> 100
N[C@H](COCc1ccccc1)c1ccccc1	–	> 100	–	45.7	–	–	–	61.8	–	> 80.9	–	–	–	–	–	–	–	61.2	–	> 100
